According to patent publication US7015312B1, “Antibodies to the protein product encoded by ORF3 of the TRP-1 gene and compositions and kits thereof” (The United States of America as represented by the …, priority 1996, dated 2006):
“Also recorded” adds a separate entry of the source.

Experiments:
Format in all cases: cell-based, human
TIL586 [1] = assay: Cytotoxic lysis of peptide-pulsed target cells by TIL586, 4-h chromium release assay; details: for % Specific lysis (E:T 20:1): 586EBV cells pulsed with peptide 1 μg/ml, TIL586 E:T 20:1, 4-h chromium release; for Sensitization of peptide-pulsed 586EBV B cells for lysis by TIL586 (in words): peptide pulsed onto 586EBV B cells
Protocol: 586EBV B cells were incubated with ORF3P (pep) (—▴—), with an irrelevant peptide (ipep) (—●—) without peptide (—Δ—) and T2 cells pulsed with ORF3P (—∘—) as marked. After incubation, TIL586 was added and mixed with the target cells. Cytolytic activity of TIL586 was measured in a 4 h chromium release assay.
586EBV cells were separately incubated with serial dilutions of ORF3P (pep) (—▴—) or irrelevant peptides (ipep) (—●—) and T2 cells with the ORF3P (peptide (—∘—) for 90 min. The cytolytic activity of TIL586 was evaluated in a 4h […] release assay at an effector: target (E:T) ratio of 40:1.
(§1) Cytolytic assays was done as previously described (Kawakami, Y et al., 1994, Proc. Natl. Acad. Sci. USA 91:6458–62). Briefly, the target cells were labeled with chromium for 90 min. After washing three times, the cells were incubated with peptides at a concentration of 1 μg/ml for 90 min. The cells were washed again, counted, and then mixed with TIL586 at the indicated ratio of effector : targets (E:T). Chromium release was measured after 4 h incubation. The peptides were synthesized by a solid-phase method using a peptide synthesizer (Model AMS 422, Gibson Co., Inc., Worthington, Ohio). Some peptides were purified by HPLC and had greater than 98% in purity. For titration of the ORF3P peptide recognized by TIL586, 586EBV B cells were incubated with various concentrations of the purified ORF3P peptide. Percentage of specific lysis was determined from the equation (A-B)/(C-B)×100 where A is lysis of 586EBV B cells by TIL586 in the presence of a peptide, B is spontaneous release from 586EBV B cells in presence of the same peptide but in the absence of effector cells, and C is the maximum chromium release.

TIL586 [2] = assay: GM-CSF release by TIL586 co-incubated with peptide-pulsed target cells; set-up: GM-CSF release: unit not given here; details: for GM-CSF release: 586EBV cells pulsed with peptide 1 μg/ml for 90 min, co-incubated with TIL586, TIL586 alone subtracted; for Recognition by TIL586 / stimulation of GM-CSF release (in words): peptide pulsed onto 586EBV B cells (A31+)
Protocol: Transfection and cytokine assays were performed as FIG. 1A and b. 586mel and 397mel were included as positive and negative controls for the reactivity of TIL586. The ORF3P peptide was incubated with 586EBV (A31+) and T2 (non-A31) cells at a concentration of 1 μg/ml for 90 min.
The following chemicals and reagents were purchased from the sources indicated: RPMI 1640, AIM-V media, Lipofectamine, G418 (GIBCO BRL, Gaithersberg, Md.); the eukaryotic expression vector pCR3 (Invitrogen, San Diego, […] containing 120 IU/ml of IL-2. TIL586 was added and incubated for additional 18–24 h, 100 μl of supernatant was collected for GM-CSF assay.

TIL586 [3] = assay: as above
TIL1200 = assay: Cold target inhibition of lysis of 51Cr-labeled 624mel by TIL1200; details: TIL1200 (gp100, HLA-A2), E:T 30:1, 4 h
Protocol: “Cold” and “hot” target cells were mixed at the indicated ratios. TIL1200 was added at an effector: hot target (E:T) ratio of 30:1. Cytolytic activity of TIL1200 was evaluated in a 4-h ^51Cr release assay.
as §1, with “release. […]” for “release.”

TIL586 [4] = assay: Cold target inhibition of lysis of 51Cr-labeled 586mel by TIL586; details: TIL586, E:T 20:1, 4 h
Protocol: 586EBV cells pulsed with ORF3P (—▴—), with irrelevant peptide (—Δ—) and T2 cells loaded with ORF3P (—□—) were used as “cold” target cells. After washing, “hot” and “cold” target cells were counted again and mixed at the “cold”/“hot” ratio of 1:1, 5:1, 10:1, and 20:1. TIL586 was added at an effector; “hot” target (E:T) ratio of 20:1. Chromium release was measured after 4 h incubation.
as §1, with “For titration of the ORF3P peptide recognized by TIL586, 586EBV B cells were incubated with various concentrations of the purified ORF3P peptide.” left out, “release. […]” for “release.”

[5] = test system: T cell clones from TIL586; assay: GM-CSF release by T cell clones generated from the TIL586 cell line; details: six T cell clones, GM-CSF assay, 18–24 h
Protocol: FIGS. 6A–6D show recognition of the antigenic peptide T cell clones from the TIL586 cell line. T cell clones were generated from the TIL586 cell line. 586EBV B cells were pulsed with the ORF3P peptide or irrelevant peptide. T cell clone or TIL586 cells were added and coincubated. For 586 mel, 397 mel/A31^+ tumors and melanocyte NHEM680 cells, 1×10^5 cells per well were incubated with 1×10^5 cells clones, TIL586-C1 (FIG. 6A), TIL586-C4 (FIG. 6B) and TIL586-C6 (FIG. 6C) or TIL586 (FIG. 6D) for 18–24 h, respectively. GM-CSF assay was performed as described in FIG. 1B.
To address the question of whether TIL586 recognized a naturally processed peptide which is similar or identical to the ORF3P peptide on the tumor cells, the ability of the ORF3P peptide pulsed 586EBV B cells to inhibit lysis of ^51Cr-labeled 586mel in a cold-target inhibition assay was examined. […] To further test if T cell clones can recognize both the ORF3P peptide pulsed 586EBV B cells and tumor cell lines, T cell clones were generated from the TIL586 cell line by limiting dilution (1 cell/well in 96-well round bottom microplate) and further expanded in culture. […] T cell clones were further expanded in AIM-V medium containing 6000 IU/ml IL-2. […]

[6] = 586EBV cells, TIL586 E:T 40:1, 4 h

AACDQRVLIVR (listed as Homo sapiens) [synthetic peptide from ORF1 (gp75)]
Sensitization of target cells for lysis by TIL586 at high peptide concentration (TIL586 [1]; 10 μg/ml of peptide, data not shown): did not sensitize the target cells for lysis | % Specific lysis (E:T 20:1) (TIL586 [1]): <10% | Sensitization of peptide-pulsed 586EBV B cells for lysis by TIL586 (in words) (TIL586 [1]): failed to sensitive peptide-loaded 586EBV B for lysis by TIL586 | GM-CSF release (TIL586 [2]): 250 | Recognition by TIL586 / stimulation of GM-CSF release (in words) (TIL586 [2]): very weakly induced GM-CSF release | Peptide concentration needed for weak stimulation of cytokine release from TIL586 (TIL586 [3]; incubated with 586EBV B cells): > 1 µg/mL

ACDQRVLIVR (listed as Homo sapiens) [synthetic peptide from ORF1 (gp75)]
% Specific lysis (E:T 20:1) (TIL586 [1]): <10% | GM-CSF release (TIL586 [2]): <50

ACDQRVLIVRR (listed as Homo sapiens) [synthetic peptide from ORF1 (gp75)]
% Specific lysis (E:T 20:1) (TIL586 [1]): <10% | GM-CSF release (TIL586 [2]): <50

AISQDTTVGR (listed as Homo sapiens) [synthetic peptide from ORF1 (gp75)]
% Specific lysis (E:T 20:1) (TIL586 [1]): <10% | GM-CSF release (TIL586 [2]): <50

CGTCRPGWR (listed as Homo sapiens) [synthetic peptide from ORF1 (gp75)]
% Specific lysis (E:T 20:1) (TIL586 [1]): <10% | GM-CSF release (TIL586 [2]): <50

DDREVWPLR (listed as Homo sapiens) [synthetic peptide from ORF1 (gp75)]
% Specific lysis (E:T 20:1) (TIL586 [1]): <10% | GM-CSF release (TIL586 [2]): <50

DQRVLIVRR (listed as Homo sapiens) [synthetic peptide from ORF1 (gp75)]
% Specific lysis (E:T 20:1) (TIL586 [1]): <10% | GM-CSF release (TIL586 [2]): <50

ISLQRQFLR (listed as Homo sapiens)
Recognition by TIL586 / stimulation of GM-CSF release (in words) (TIL586 [2]): still recognized by TIL586 at comparable concentrations to that of the wild-type peptide

IVRRNLLDLSK (listed as Homo sapiens) [synthetic peptide from ORF1 (gp75)]
% Specific lysis (E:T 20:1) (TIL586 [1]): <10% | GM-CSF release (TIL586 [2]): <50

LSKEEKNHFVR (listed as Homo sapiens) [synthetic peptide from ORF1 (gp75)]
% Specific lysis (E:T 20:1) (TIL586 [1]): <10% | GM-CSF release (TIL586 [2]): <50

LWDVPSWLER (listed as Homo sapiens)
% Specific lysis (E:T 20:1) (TIL586 [1]): <10% | GM-CSF release (TIL586 [2]): <50

MALQRQFLR (listed as Homo sapiens) [modified ORF3P, substitution Ser with Ala at position 2]
Recognition by TIL586 / stimulation of GM-CSF release (in words) (TIL586 [2]): recognized

MLLQRQFLR (listed as Homo sapiens) [modified ORF3P, anchor residue substitution]
Recognition by TIL586 / stimulation of GM-CSF release (in words) (TIL586 [2]): did not recognize

MRLQRQFLR (listed as Homo sapiens) [modified ORF3P, anchor residue substitution]
Recognition by TIL586 / stimulation of GM-CSF release (in words) (TIL586 [2]): did not recognize

MSLQRLFLR (listed as Homo sapiens) [modified ORF3P, anchor residue substitution]
Recognition by TIL586 / stimulation of GM-CSF release (in words) (TIL586 [2]): did not recognize

MSLQRQFLE (listed as Homo sapiens) [modified ORF3P, anchor residue substitution]
Recognition by TIL586 / stimulation of GM-CSF release (in words) (TIL586 [2]): did not recognize

MSLQRQFLK (listed as Homo sapiens) [modified ORF3P, anchor residue substitution]
Recognition by TIL586 / stimulation of GM-CSF release (in words) (TIL586 [2]): did not recognize

MSLQRQFLR (listed as Homo sapiens) [ORF3P, antigenic nonamer peptide derived from ORF3 of the gp75 (TRP-1) gene]
Inhibition of lysis of 51Cr-labeled 624mel by cold peptide-pulsed 586EBV B cells (TIL1200): did not inhibit | Peptide concentration at which lytic activity was still detected (TIL586 [1]; [6]): 1 nM | Peptide concentration giving maximal sensitization for lysis (TIL586 [1]; [6]): 100 nM | Lysis by TIL586 of T2 cells pulsed with peptide (TIL586 [1]; T2 (non-A31) cells pulsed with peptide): failed to lyse | Sensitization of peptide-pulsed 586EBV B cells for lysis by TIL586 (in words) (TIL586 [1]): lysed | Recognition by TIL586 / GM-CSF release, peptide on T2 cells (TIL586 [2]; peptide loaded onto T2 (non-HLA-A31) cells): not when peptide was loaded onto T2 (non-HLA-A31) cells | Recognition by TIL586 / stimulation of GM-CSF release (in words) (TIL586 [2]): strongly recognized by TIL586; also recorded: significantly increased | Inhibition of lysis of 51Cr-labeled 586mel by cold peptide-pulsed 586EBV B cells (TIL586 [4]): Significant inhibition | Recognition of peptide-pulsed 586EBV B cells by T cell clones from TIL586 [5]: capable of recognizing; also recorded: recognized by six T cell clones derived from TIL586 | Recognition by TIL586 / GM-CSF release, peptide on 1510EBV cells (TIL586 [3]; peptide pulsed onto allogeneic 1510EBV B (A31+) cells): observed only when the peptide was pulsed onto autologous 586EBV B cells and 1510EBV B (A31+) cells; also recorded: significantly increased

MSLQRQFLRT (listed as Homo sapiens) [peptide from ORF3]
Recognition by TIL586 / stimulation of GM-CSF release (in words) (TIL586 [2]): did not recognize

SGHNCGTCR (listed as Homo sapiens) [synthetic peptide from ORF1 (gp75)]
% Specific lysis (E:T 20:1) (TIL586 [1]): <10% | GM-CSF release (TIL586 [2]): <50

SLQRQFLRT (listed as Homo sapiens) [peptide from ORF3]
Recognition by TIL586 / stimulation of GM-CSF release (in words) (TIL586 [2]): did not recognize

VWPLRFFNR (listed as Homo sapiens) [synthetic peptide from ORF1 (gp75)]
% Specific lysis (E:T 20:1) (TIL586 [1]): <10% | GM-CSF release (TIL586 [2]): <50
